We go through four compounds from ChEMBL document CHEMBL3351363 (J Med Chem, 2014).

Assay [1] concerns the target Muscarinic acetylcholine receptor M3 (Homo sapiens, UniProt P20309). Nature of the assay: Displacement of [3H]NMS from human M3 receptor expressed in CHO cells by microplate scintillation counting based radioligand binding assay. In kind it is cell-based. On the technique in general: Displacement assays read how much labelled ligand stays bound in the presence of the test substance.

Assay [2] deals with T1, Muscarinic acetylcholine receptor M1 (Homo sapiens) (UniProt P11229).
T1 sequence (whole entry): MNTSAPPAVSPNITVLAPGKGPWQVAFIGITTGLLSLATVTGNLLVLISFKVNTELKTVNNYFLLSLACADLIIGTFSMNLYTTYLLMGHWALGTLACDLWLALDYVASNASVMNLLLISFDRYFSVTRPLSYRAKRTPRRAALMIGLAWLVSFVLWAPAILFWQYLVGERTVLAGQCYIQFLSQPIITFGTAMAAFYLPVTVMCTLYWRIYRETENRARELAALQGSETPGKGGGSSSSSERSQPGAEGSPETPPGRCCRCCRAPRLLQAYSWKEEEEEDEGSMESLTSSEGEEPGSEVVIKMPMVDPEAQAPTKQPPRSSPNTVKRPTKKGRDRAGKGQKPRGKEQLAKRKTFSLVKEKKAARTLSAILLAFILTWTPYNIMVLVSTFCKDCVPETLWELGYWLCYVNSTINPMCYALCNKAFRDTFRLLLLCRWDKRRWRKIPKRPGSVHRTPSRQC
Nature of the assay: Agonist activity at human M1 receptor expressed in HEK293T cells by BRET based Gq protein activation assay relative to carbachol. Type of assay: cell-based. Conditions: HEK-293T. (Bioluminescence resonance energy transfer reports proximity on the nanometre scale.)

Assay [3] concerns the target T1, Muscarinic acetylcholine receptor M1 (Homo sapiens). Nature of the assay: Agonist activity at human M1 receptor expressed in HEK293T cells by BRET based Gq protein engagement assay relative carbachol. In kind it is cell-based. Conditions: HEK-293T.
For assay [4], the target named is T2, Muscarinic acetylcholine receptor M4 (Homo sapiens) (UniProt P08173).
T2 sequence (whole entry): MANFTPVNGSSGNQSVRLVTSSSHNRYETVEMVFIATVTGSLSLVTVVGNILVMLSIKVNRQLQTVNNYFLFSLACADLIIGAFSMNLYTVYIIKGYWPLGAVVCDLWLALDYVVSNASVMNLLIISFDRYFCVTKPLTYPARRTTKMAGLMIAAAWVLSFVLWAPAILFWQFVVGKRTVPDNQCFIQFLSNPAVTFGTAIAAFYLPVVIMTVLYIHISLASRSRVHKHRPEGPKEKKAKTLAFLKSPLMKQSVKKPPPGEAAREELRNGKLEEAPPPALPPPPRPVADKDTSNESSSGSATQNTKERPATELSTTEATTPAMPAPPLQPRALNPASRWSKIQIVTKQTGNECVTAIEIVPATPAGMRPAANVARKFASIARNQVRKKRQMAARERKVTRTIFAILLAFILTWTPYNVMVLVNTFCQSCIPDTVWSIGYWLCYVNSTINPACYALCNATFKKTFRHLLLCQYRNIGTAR
Nature of the assay: Agonist activity at human M4 receptor expressed in HEK293T cells by BRET based Gi protein activation assay relative to carbachol. Conditions: HEK-293T.

For assay [5], the target named is T1, Muscarinic acetylcholine receptor M1 (Homo sapiens). Nature of the assay: Agonist activity at human M1 receptor expressed in HEK293T cells by BRET based beta-arrestin engagement assay relative to carbachol. In kind it is cell-based. As to conditions: HEK-293T.
Assay [6] has as its target T2, Muscarinic acetylcholine receptor M4 (Homo sapiens). Nature of the assay: Agonist activity at human M4 receptor expressed in HEK293T cells by BRET based beta-arrestin engagement assay relative to carbachol. In kind it is cell-based. Conditions: HEK-293T.
Assay [7] shares this target. Nature of the assay: Antagonist activity at human M4 receptor expressed in HEK293T cells assessed as inhibition of carbachol-induced response by beta-arrestin engagement assay relative to untreated control. Type of assay: cell-based. Conditions: HEK-293T.
In assay [8] the target is T3, Muscarinic acetylcholine receptor M1 (Homo sapiens, UniProt P11229).
T3 sequence (P11229 whole entry): T1 sequence (whole entry)
Nature of the assay: Displacement of [3H]NMS from human M1 receptor expressed in CHO cells by microplate scintillation counting based radioligand binding assay. In kind it is cell-based.

Assay [9] deals with T4, Muscarinic acetylcholine receptor M4 (Homo sapiens, UniProt P08173).
T4 sequence (P08173 whole entry): T2 sequence (whole entry)
Nature of the assay: Antagonist activity at human M4 receptor expressed in HEK293T cells assessed as inhibition of carbachol-induced response by beta-arrestin engagement assay. Type of assay: cell-based, HEK-293T.

Assay [10] concerns the target T5, Muscarinic acetylcholine receptor M5 (Homo sapiens, UniProt P08912).
T5 sequence (P08912 whole entry): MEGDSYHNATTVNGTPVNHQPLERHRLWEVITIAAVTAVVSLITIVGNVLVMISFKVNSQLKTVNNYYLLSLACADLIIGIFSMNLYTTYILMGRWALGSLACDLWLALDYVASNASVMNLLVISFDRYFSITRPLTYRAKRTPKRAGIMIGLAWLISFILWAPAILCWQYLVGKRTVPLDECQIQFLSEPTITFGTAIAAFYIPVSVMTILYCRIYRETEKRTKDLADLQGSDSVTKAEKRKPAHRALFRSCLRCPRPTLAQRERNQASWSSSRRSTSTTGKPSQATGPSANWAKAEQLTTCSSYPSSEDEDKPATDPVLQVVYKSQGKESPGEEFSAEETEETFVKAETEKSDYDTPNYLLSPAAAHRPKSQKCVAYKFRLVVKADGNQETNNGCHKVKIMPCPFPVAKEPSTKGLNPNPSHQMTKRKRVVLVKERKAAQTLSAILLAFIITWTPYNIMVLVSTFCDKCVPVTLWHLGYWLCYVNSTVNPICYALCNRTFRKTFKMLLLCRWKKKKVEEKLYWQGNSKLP
Nature of the assay: Displacement of [3H]NMS from human M5 receptor expressed in CHO cells by microplate scintillation counting based radioligand binding assay. Type of assay: cell-based.

Assay [11] has as its target T3, Muscarinic acetylcholine receptor M1.
Assay [12] shares this target. In kind it is cell-based, HEK-293T.
In assay [13] the target is T2, Muscarinic acetylcholine receptor M4 (Homo sapiens). Nature of the assay: Antagonist activity at human M4 receptor expressed in HEK293T cells assessed as inhibition of carbachol-induced response by BRET based Gq protein engagement assay relative to untreated control. In kind it is cell-based. Conditions: HEK-293T.
Assay [14] has as its target T4, Muscarinic acetylcholine receptor M4. Nature of the assay: Antagonist activity at human M4 receptor expressed in HEK293T cells assessed as inhibition of carbachol-induced response by BRET based Gq protein engagement assay. In kind it is cell-based, HEK-293T.
Assay [15] addresses T3, Muscarinic acetylcholine receptor M1. Nature of the assay: Agonist activity at human M1 receptor expressed in HEK293T cells by BRET based Gq protein activation assay. In kind it is cell-based, HEK-293T.
For assay [16], the target named is T2, Muscarinic acetylcholine receptor M4 (Homo sapiens). Nature of the assay: Agonist activity at human M4 receptor expressed in HEK293T cells by BRET based Gq protein engagement assay relative to carbachol. Type of assay: cell-based. Conditions: HEK-293T.
The target in assay [17] is T4, Muscarinic acetylcholine receptor M4. Nature of the assay: Agonist activity at human M4 receptor expressed in HEK293T cells by BRET based Gq protein activation assay.
Assay [18] concerns the target T6, Muscarinic acetylcholine receptor M2 (Homo sapiens, UniProt P08172).
T6 sequence (P08172 whole entry): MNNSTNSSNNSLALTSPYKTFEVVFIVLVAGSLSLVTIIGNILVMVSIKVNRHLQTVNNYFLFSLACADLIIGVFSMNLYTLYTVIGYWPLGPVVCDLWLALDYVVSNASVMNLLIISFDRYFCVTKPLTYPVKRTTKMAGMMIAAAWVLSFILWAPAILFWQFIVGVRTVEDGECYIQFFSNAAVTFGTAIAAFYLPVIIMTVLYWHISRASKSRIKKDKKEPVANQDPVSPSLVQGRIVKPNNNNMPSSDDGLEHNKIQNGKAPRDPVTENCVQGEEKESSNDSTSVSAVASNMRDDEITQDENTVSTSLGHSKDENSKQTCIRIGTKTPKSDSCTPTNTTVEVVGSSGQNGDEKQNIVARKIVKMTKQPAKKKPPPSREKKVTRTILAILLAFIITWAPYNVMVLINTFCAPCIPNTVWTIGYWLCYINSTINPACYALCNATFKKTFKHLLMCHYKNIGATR
Nature of the assay: Displacement of [3H]NMS from human M2 receptor expressed in CHO cells by microplate scintillation counting based radioligand binding assay. Type of assay: cell-based.

In assay [19] the target is T4, Muscarinic acetylcholine receptor M4.
The target is the same in assay [20]. Nature of the assay: Displacement of [3H]NMS from human M4 receptor expressed in CHO cells by microplate scintillation counting based radioligand binding assay. Type of assay: cell-based.
Assay [21] addresses T2, Muscarinic acetylcholine receptor M4 (Homo sapiens). Nature of the assay: Antagonist activity at human M4 receptor expressed in HEK293T cells assessed as inhibition of carbachol-induced response by BRET based Gi protein activation assay relative to untreated control. As to conditions: HEK-293T.
For assay [22], the target named is T3, Muscarinic acetylcholine receptor M1. Type of assay: cell-based, HEK-293T. The source holds these as a separate data set.
For assay [23], the target named is T4, Muscarinic acetylcholine receptor M4. Nature of the assay: Agonist activity at human M4 receptor expressed in HEK293T cells by BRET based Gq protein engagement assay.
Assay [24] addresses T3, Muscarinic acetylcholine receptor M1. Nature of the assay: Agonist activity at human M1 receptor expressed in HEK293T cells by BRET based beta-arrestin engagement assay.
The target is the same in assay [25]. Nature of the assay: Agonist activity at human M1 receptor expressed in HEK293T cells by BRET based Gq protein engagement assay.
Assay [26] has as its target T1, Muscarinic acetylcholine receptor M1 (Homo sapiens). Nature of the assay: Positive modulatory activity at human M1 receptor expressed in HEK293T cells assessed as effect on carbachol-induced response by BRET based Gq protein engagement assay relative to untreated control. Type of assay: cell-based. As to conditions: HEK-293T.
The target in assay [27] is T3, Muscarinic acetylcholine receptor M1. Nature of the assay: Positive modulatory activity at human M1 receptor expressed in HEK293T cells assessed as effect on carbachol-induced response by BRET based Gq protein activation assay. Type of assay: cell-based, HEK-293T.
Assay [28] addresses T1, Muscarinic acetylcholine receptor M1 (Homo sapiens). Nature of the assay: Positive modulatory activity at human M1 receptor expressed in HEK293T cells assessed as effect on carbachol-induced response by BRET based Gq protein activation assay relative to untreated control. Type of assay: cell-based. As to conditions: HEK-293T.
Assay [29] has as its target T3, Muscarinic acetylcholine receptor M1. Nature of the assay: Positive modulatory activity at human M1 receptor expressed in HEK293T cells assessed as effect on carbachol-induced response by BRET based Gq protein engagement assay. In kind it is cell-based, HEK-293T.

Each structure is given as a SMILES string. Some results are limits rather than exact numbers.

Chain of Muscarinic acetylcholine receptor M3 (P20309 whole entry): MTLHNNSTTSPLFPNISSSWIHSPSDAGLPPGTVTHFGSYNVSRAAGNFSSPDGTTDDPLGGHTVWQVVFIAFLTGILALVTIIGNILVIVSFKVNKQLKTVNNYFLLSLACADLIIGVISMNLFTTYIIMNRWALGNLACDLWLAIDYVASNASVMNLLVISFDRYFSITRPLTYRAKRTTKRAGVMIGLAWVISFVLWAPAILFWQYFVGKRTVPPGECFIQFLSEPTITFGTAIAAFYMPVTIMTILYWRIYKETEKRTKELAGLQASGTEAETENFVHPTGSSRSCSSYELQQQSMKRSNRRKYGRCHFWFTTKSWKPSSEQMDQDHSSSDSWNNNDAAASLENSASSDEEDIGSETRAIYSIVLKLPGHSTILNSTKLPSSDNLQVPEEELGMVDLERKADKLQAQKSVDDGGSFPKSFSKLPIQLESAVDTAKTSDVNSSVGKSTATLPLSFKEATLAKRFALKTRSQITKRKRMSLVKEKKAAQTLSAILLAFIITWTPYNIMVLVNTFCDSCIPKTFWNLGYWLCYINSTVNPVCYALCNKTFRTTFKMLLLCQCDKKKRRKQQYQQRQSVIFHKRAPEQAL

`CCCCCCOc1nsnc1C1=CCCN(C)C1` [XANOMELINE] had a Ki in [1] of 7.76 nM. Moreover, the Emax in assay [2] is 77%; in assay [3], 54%; in assay [4], 94%; in [5] it was 95%; in assay [6], 42%.
Take `CN1CCC=C(c2nsnc2OCCCCCC2CCN(CCCN3C(=O)CCc4ccccc43)CC2)C1`: the Imax in [7], in assay [13] and in assay [21] was less than 100% each time. In addition, the inhibition constant (Ki) in assay [8] was 6.76 nM; in assay [10], 5.62 nM; in [1], 4.68 nM; in [18], 11 nM; in [20], 7.94 nM. For the same compound, the IC50 in [9] is 355 nM; in [11], 4270 nM; in assay [12], 5370 nM; in assay [14], 447 nM; in assay [19], 631 nM; in assay [22], 646 nM. The EC50 is 20.4 nM in assay [15], 30.9 nM in assay [17] and 7080 nM in assay [23]. The Emax is 13% in assay [2], less than 0% in [3], less than 0% in assay [16] and 27% in assay [4].
Take `CN1CCC=C(c2nsnc2OCCCCCCCC2CCN(CCCN3C(=O)CCc4ccccc43)CC2)C1`: the results for the Imax in assay [7], in assay [13] and in [21] were 14%, 92% and 60%, respectively. In addition, the EC50 in assay [24] is 174 nM; in assay [15], 41.7 nM; in assay [17] it was 35.5 nM; in assay [25], 166 nM; in assay [23], 18.6 nM. Besides, the Ki in [8] is 0.912 nM; in assay [10], 2.29 nM; in [1] it was 0.794 nM; in assay [18] it was 1.38 nM; in [20] it was 0.891 nM. Besides, the IC50 in assay [9] is 145 nM; in assay [11], 21.9 nM; in assay [12] it was 380 nM; in [14], 407 nM; in assay [19], 1860 nM; in assay [22] it was 741 nM. Moreover, the Emax in assay [2] was 25%; in [3], 42%; in [16] it was 18%; in assay [4], 40%; in assay [5] it was 42%.
As for `O=C1CCc2ccccc2N1CCCN1CCC(CCCCCCCO)CC1`, the Imax in assay [7] is 93%; in assay [13], less than 100%; in assay [21], 54%. The Ki in assay [8] was 355 nM; in [10] it was 3090 nM; in [1] it was 631 nM; in [18] it was 209 nM; in [20] it was 389 nM. In addition, the half-inhibitory concentration (IC50) in [9] was 794 nM; in assay [11], 1150 nM; in [14], 1480 nM; in assay [19], 589 nM. Besides, the Emax in assay [26] is 21%; in [2] it was 73%; in assay [3], 76%; in [16], less than 0%; in assay [4], less than 0%; in assay [28] it was 44%. The EC50 is 100 nM in assay [15], 85.1 nM in [27], 229 nM in assay [25] and 69.2 nM in [29].

One may read the Ki as a measure of affinity in units of concentration, obtained from inhibition or displacement. High values mean lower affinity, low ones higher affinity. As a reminder, the Emax is the size of the effect at its maximum, as opposed to the concentration needed. What is called IC50 is the midpoint of a concentration-inhibition curve. A word on the EC50: it is the concentration needed to bring the measured effect to its halfway point.
